Laboratory results: patent US20260345596A1, “TREATMENT OF LOCALLY ADVANCED OR METASTATIC UROTHELIAL CARCINOMA WITH ERDAFINITIB” (priority 2023, published 2026)

Assays:
[1] = Protein binding in patients; conditions: human, in vivo

COc1cc(OC)cc(N(CCNC(C)C)c2ccc3ncc(-c4cnn(C)c4)nc3c2)c1 [Erdafitinib, N-(3,5-dimethoxyphenyl)-N′-(1-methylethyl)-N-[3-(1-methyl-1H-pyrazol-4-yl)quinoxalin-6-yl]ethane-1,2-diamine]
Dose proportionality of exposure (Cmax and AUC) (0.5 to 12 mg, single and repeat once daily dosing): increased proportionally across the dose range of 0.5 to 12 mg
Effect of food on exposure (high-fat and high-calorie meal): No clinically meaningful differences in erdafitinib exposure
Time to steady state (once daily dosing): 2 weeks
Effect of age, sex, race, body weight, hepatic or renal impairment on exposure (specific populations): No clinically meaningful effects on erdafitinib exposure were observed based on age (21-92 years), sex, race (White, Hispanic or Asian), body weight (36-166 kg), mild (Child-Pugh A) or moderate (Child-Pugh B) hepatic impairment, or mild to moderate renal impairment (eGFR 30 to 89 mL/min/1.73 m^2)
fraction unbound [1]: 0.003
